Reference: patent US5210193A, “Piperazine derivatives” (American Cyanamid Company, priority 1990, dated 1993)
In brackets after ≈: the same amount, converted by molar mass.

Tests used:
[1] = system: Staphylococcus aureus Smith; assay: in vivo antibacterial activity, survival of infected mice (Table III); parameters: species or system Charles River CD-1 mice; details: subcutaneous
Description: Charles River CD-1 mice were infected with either Klebsiella pneumoniae AD or Staphylococcus aureus Smith. A single subcutaneous dose of the test compound was administered 1/2 hour after infection. […] The results appear in Tables II and III, wherein the representative test compounds are identified by the number of their hereinafter described examples.

[2] = system: Enterobacter aerogenes VGH 84-36; assay: in vitro antibacterial MIC, agar plate dilution; assay type: cell-based; details: Klebsiella aerogenes, VGH8436, 18 hours, 35° C., read-out: MIC
Outline: (§1)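 Agar plate dilution on Mueller-Hinton agar, inoculum approximately 10^4 CFU per organism applied with a Steers replicator. MIC (mcg/ml) is the lowest compound concentration inhibiting visible growth after 18 hours at 35° C.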

[3] = system: Pseudomonas aeruginosa VGH 84-4; assay: in vitro antibacterial MIC, agar plate dilution; assay type: cell-based; details: Pseudomonas aeruginosa, VGH844, 18 h, 35° C., read-out: MIC
Outline: as §1

[4] = system: Staphylococcus aureus ATCC 25913; assay: in vitro antibacterial MIC, agar plate dilution; assay type: cell-based; details: ATCC25913, 18 hours, 35° C.
Outline: as §1

Klebsiella pneumoniae AD = assay: in vitro antibacterial MIC, agar plate dilution; assay type: cell-based; details: Klebsiella pneumoniae, 18 h, 35° C., read-out: MIC
Outline: as §1

[5] = system: Klebsiella pneumoniae MOR 84-4; assay: in vitro antibacterial MIC, agar plate dilution; assay type: cell-based; details: Klebsiella pneumoniae, MOR844, 18 h, 35° C., read-out: MIC
Outline: as §1

[6] = system: Morganella morganii VGH 84-11; assay: in vitro antibacterial MIC, agar plate dilution; assay type: cell-based; details: VGH8411, 18 hours, 35° C., read-out: MIC
Outline: as §1

[7] = system: Escherichia coli ATCC 25922; assay: in vitro antibacterial MIC, agar plate dilution; assay type: cell-based; details: Escherichia coli, ATCC25922, 18 h, 35° C., read-out: MIC
Outline: as §1

[8] = system: Staphylococcus aureus Smith; assay: in vitro antibacterial MIC, agar plate dilution; assay type: cell-based; details: Staphylococcus aureus, 18 h, 35° C., read-out: MIC
Outline: as §1

[9] = system: Escherichia coli CMC 84-11; assay: in vitro antibacterial MIC, agar plate dilution; assay type: cell-based; details: Escherichia coli, CMC8411, 18 h, 35° C., read-out: MIC
Outline: as §1

[10] = system: Proteus rettgeri CMC 84-41; assay: in vitro antibacterial MIC, agar plate dilution; assay type: cell-based; details: Providencia rettgeri, CMC8441, 18 h, 35° C., read-out: MIC
Outline: as §1

[11] = system: Enterobacter cloacae VGH 84-37; assay: in vitro antibacterial MIC, agar plate dilution; assay type: cell-based; details: Enterobacter cloacae, VGH8437, 18 h, 35° C., read-out: MIC
Outline: as §1

CCn1cc(C(=O)O)c(=O)c2cc(F)c(N3CCN(C)C(c4ccc(Br)s4)C3)cc21 (stereo not shown) [Example 14, 7-[3-(5-Bromo-2-thienyl)-4-methyl-1-piperazinyl]-1-ethyl-6-fluoro-1,4-dihydro-4-oxo-3-quinolinecarboxylic acid]
Survival Ratio 7 Days After Infection ([1]; 0.5 mg/kg single dose): 0/5
Survival Ratio 7 Days After Infection ([1]; 1 mg/kg single dose): 0/5
Survival Ratio 7 Days After Infection ([1]; 2 mg/kg single dose): 0/5
Survival Ratio 7 Days After Infection ([1]; 4 mg/kg single dose): 5/5
Survival Ratio 7 Days After Infection ([1]; 8 mg/kg single dose): 5/5
MIC [2]: > 256 µg/mL
MIC [3]: > 256 µg/mL
MIC [4]: 0.5 µg/mL (≈ 1.01 µM)
MIC (Klebsiella pneumoniae AD): 256 µg/mL (≈ 518 µM)
MIC [5]: > 256 µg/mL
MIC [6]: > 256 µg/mL
MIC [7]: > 256 µg/mL
MIC [8]: 0.25 µg/mL (≈ 0.506 µM)
MIC [9]: > 256 µg/mL
MIC [10]: 128 µg/mL (≈ 259 µM)
MIC [11]: > 256 µg/mL
